Results as given in PubChem BioAssay (NCI).
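Test compounds were applied to cells in 96-well plates for 48 hours at 5 doses. Definition used: TGI = concentration required for complete inhibition of growth.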

Legend:
Assay in all cases: growth of human tumour cells (NCI), 48 h
ACHN renal = tested on: ACHN renal
HCT-116 colon = tested on: HCT-116 colon
HOP-62 NSCLC = tested on: HOP-62 NSCLC
HT29 colon = tested on: HT29 colon
K-562 leukemia = tested on: K-562 leukemia
MALME-3M melanoma = tested on: MALME-3M melanoma
MOLT-4 leukemia = tested on: MOLT-4 leukemia
NCI-H460 lung = tested on: NCI-H460 lung
NCI-H522 lung = tested on: NCI-H522 lung
OVCAR-5 ovarian = tested on: OVCAR-5 ovarian
RXF 393 renal = tested on: RXF 393 renal
SF-268 CNS = tested on: SF-268 CNS
SF-539 CNS = tested on: SF-539 CNS
SK-MEL-2 melanoma = tested on: SK-MEL-2 melanoma
SK-MEL-5 melanoma = tested on: SK-MEL-5 melanoma
TK-10 renal = tested on: TK-10 renal
UO-31 renal = tested on: UO-31 renal
OVCAR-4 ovarian = tested on: OVCAR-4 ovarian
SR leukemia = tested on: SR leukemia

In the case of CSc1nc(NC2OCC(OC(C)=O)C(OC(C)=O)C2OC(C)=O)c2c(n1)OCC2=O (stereo unspecified), the TGI (ACHN renal) is reported as > 100 µM, the TGI (HCT-116 colon) is reported as > 100 µM and the TGI (HOP-62 NSCLC) is reported as > 100 µM. The TGI (HT29 colon) was > 100 µM, the TGI (K-562 leukemia) was > 100 µM and the TGI (MALME-3M melanoma) was > 100 µM. For the same molecule, the TGI (MOLT-4 leukemia) was > 100 µM, the TGI (NCI-H460 lung) was > 100 µM and the TGI (NCI-H522 lung) was > 100 µM. The TGI (OVCAR-5 ovarian) was > 100 µM, the TGI (RXF 393 renal) was > 100 µM and the TGI (SF-268 CNS) was > 100 µM. The TGI (SF-539 CNS) was > 100 µM, the TGI (SK-MEL-2 melanoma) was > 100 µM and the TGI (SK-MEL-5 melanoma) was > 100 µM. The TGI (TK-10 renal) was > 100 µM and the TGI (UO-31 renal) was > 100 µM.

For Cc1cccc(N=Cc2ccc(N(CCC#N)S(=O)(=O)c3ccccc3)cc2C)c1, the TGI (ACHN renal) was > 100 µM, the TGI (HCT-116 colon) was > 100 µM and the TGI (HOP-62 NSCLC) was > 100 µM. The TGI (HT29 colon) was > 100 µM, the TGI (K-562 leukemia) was > 100 µM and the TGI (MALME-3M melanoma) was > 100 µM. For the same molecule, the TGI (MOLT-4 leukemia) was > 100 µM, the TGI (NCI-H522 lung) was > 100 µM and the TGI (OVCAR-4 ovarian) was > 100 µM. The TGI (OVCAR-5 ovarian) was > 100 µM, the TGI (SF-268 CNS) was > 100 µM and the TGI (SF-539 CNS) was > 100 µM. For the same molecule, the TGI (SK-MEL-2 melanoma) was > 100 µM, the TGI (SK-MEL-5 melanoma) was > 100 µM and the TGI (TK-10 renal) was > 100 µM. The TGI (UO-31 renal) was > 100 µM.

With CN/N=C(\C(=O)Nc1ccc(C(F)(F)F)cc1[N+](=O)[O-])C(c1cnc2ccc([N+](=O)[O-])cc2n1)[N+](=O)[O-] (stereo unspecified) the TGI (ACHN renal) was > 100 µM, the TGI (HCT-116 colon) was > 100 µM and the TGI (HOP-62 NSCLC) was > 100 µM. The TGI (HT29 colon) was > 100 µM, the TGI (K-562 leukemia) was > 100 µM and the TGI (MALME-3M melanoma) was > 100 µM. For the same molecule, the TGI (MOLT-4 leukemia) was > 100 µM, the TGI (NCI-H460 lung) was > 100 µM and the TGI (NCI-H522 lung) was 66.3 µM. For the same molecule, the TGI (OVCAR-5 ovarian) was 79.5 µM, the TGI (RXF 393 renal) was > 100 µM and the TGI (SF-268 CNS) was > 100 µM. For the same molecule, the TGI (SF-539 CNS) was > 100 µM, the TGI (SK-MEL-2 melanoma) was > 100 µM and the TGI (SK-MEL-5 melanoma) was > 100 µM. For the same molecule, the TGI (SR leukemia) was > 100 µM and the TGI (UO-31 renal) was > 100 µM.

With Brc1ccc(C=NC23CC4CC(CC(C4)C2)C3)cc1 the TGI (ACHN renal) was > 100 µM, the TGI (HCT-116 colon) was > 100 µM and the TGI (HOP-62 NSCLC) was > 100 µM. The TGI (HT29 colon) was > 100 µM, the TGI (K-562 leukemia) was > 100 µM and the TGI (MALME-3M melanoma) was > 100 µM. The TGI (MOLT-4 leukemia) was > 100 µM, the TGI (NCI-H460 lung) was > 100 µM and the TGI (NCI-H522 lung) was > 100 µM. For the same molecule, the TGI (OVCAR-4 ovarian) was > 100 µM, the TGI (OVCAR-5 ovarian) was > 100 µM and the TGI (RXF 393 renal) was > 100 µM. The TGI (SF-268 CNS) was > 100 µM, the TGI (SF-539 CNS) was > 100 µM and the TGI (SK-MEL-2 melanoma) was > 100 µM. The TGI (SK-MEL-5 melanoma) was > 100 µM, the TGI (TK-10 renal) was > 100 µM and the TGI (UO-31 renal) was > 100 µM.

In the case of CO/N=C(/C(=O)Nc1c[n+](CC(=O)[O-])cs1)c1csc(N)n1, the TGI (ACHN renal) is reported as > 100 µM, the TGI (HCT-116 colon) is reported as > 100 µM and the TGI (HT29 colon) is reported as > 100 µM. The TGI (K-562 leukemia) was > 100 µM, the TGI (MALME-3M melanoma) was > 100 µM and the TGI (MOLT-4 leukemia) was > 100 µM. For the same molecule, the TGI (NCI-H460 lung) was > 100 µM, the TGI (NCI-H522 lung) was > 100 µM and the TGI (OVCAR-5 ovarian) was > 100 µM. The TGI (SF-268 CNS) was > 100 µM, the TGI (SF-539 CNS) was > 100 µM and the TGI (SK-MEL-2 melanoma) was > 100 µM. For the same molecule, the TGI (SK-MEL-5 melanoma) was > 100 µM, the TGI (TK-10 renal) was > 100 µM and the TGI (UO-31 renal) was > 100 µM.

With O=[N+]([O-])c1cccc(C2=NN(c3ccccc3)C3c4ccccc4OCC23)c1 (stereo unspecified) the TGI (ACHN renal) was > 100 µM, the TGI (HCT-116 colon) was > 100 µM and the TGI (HOP-62 NSCLC) was > 100 µM. For the same molecule, the TGI (HT29 colon) was > 100 µM, the TGI (K-562 leukemia) was > 100 µM and the TGI (MALME-3M melanoma) was > 100 µM. The TGI (MOLT-4 leukemia) was > 100 µM, the TGI (NCI-H460 lung) was > 100 µM and the TGI (NCI-H522 lung) was > 100 µM. For the same molecule, the TGI (OVCAR-5 ovarian) was > 100 µM, the TGI (RXF 393 renal) was > 100 µM and the TGI (SF-268 CNS) was > 100 µM. The TGI (SF-539 CNS) was > 100 µM, the TGI (SK-MEL-2 melanoma) was > 100 µM and the TGI (TK-10 renal) was > 100 µM. For the same molecule, the TGI (UO-31 renal) was > 100 µM.

O=C(O[C@H]1[C@@H]2C=CO[C@@H](OC3OC(CO)C(O)C(O)C3O)[C@@H]2[C@@]2(CO)O[C@@H]12)c1ccc(O)c(O)c1 (stereo partly specified) was tested, and the TGI (ACHN renal) was > 100 µM, the TGI (HOP-62 NSCLC) was > 100 µM and the TGI (HT29 colon) was > 100 µM. The TGI (K-562 leukemia) was > 100 µM, the TGI (MALME-3M melanoma) was > 100 µM and the TGI (MOLT-4 leukemia) was > 100 µM. The TGI (NCI-H460 lung) was > 100 µM, the TGI (NCI-H522 lung) was > 100 µM and the TGI (OVCAR-4 ovarian) was > 100 µM. The TGI (OVCAR-5 ovarian) was > 100 µM, the TGI (RXF 393 renal) was > 100 µM and the TGI (SF-268 CNS) was > 100 µM. For the same molecule, the TGI (SF-539 CNS) was > 100 µM, the TGI (SK-MEL-2 melanoma) was > 100 µM and the TGI (SK-MEL-5 melanoma) was > 100 µM. For the same molecule, the TGI (TK-10 renal) was > 100 µM and the TGI (UO-31 renal) was > 100 µM.
